Results from the NIST ThermoML archive (doi:10.1016/j.fluid.2012.11.013).
± gives the expanded uncertainty stated by the source.

Settings: Liquid, Vibrating tube method

CCC(C)(C)C [2,2-dimethylbutane]
mass density [kg/m3]
Settings | 283.15 K | 288.15 K | 293.15 K | 298.15 K | 303.15 K | 308.15 K | 313.15 K | 318.15 K | 323.15 K | 328.15 K
100 kPa | 658.57 ± 0.3 | 653.96 ± 0.3 | 649.25 ± 0.31 | 644.46 ± 0.31 | 639.75 ± 0.31 | 634.86 ± 0.31 | 630.04 ± 0.31 | 625.06 ± 0.31 | 620.03 ± 0.31 | –
2000 kPa | 660.76 ± 0.32 | 656.25 ± 0.32 | 651.6 ± 0.32 | 646.95 ± 0.32 | 642.26 ± 0.32 | 637.48 ± 0.33 | 632.76 ± 0.33 | 627.98 ± 0.33 | 623.17 ± 0.33 | 618.2 ± 0.33
5000 kPa | 664.07 ± 0.35 | 659.62 ± 0.35 | 655.12 ± 0.35 | 650.7 ± 0.35 | 646.07 ± 0.35 | 641.54 ± 0.36 | 637.06 ± 0.36 | 632.33 ± 0.36 | 627.74 ± 0.36 | 623.02 ± 0.36
7000 kPa | 666.19 ± 0.37 | 661.74 ± 0.37 | 657.45 ± 0.37 | 653.04 ± 0.37 | 648.58 ± 0.37 | 644.04 ± 0.38 | 639.66 ± 0.38 | 635.14 ± 0.38 | 630.61 ± 0.38 | 626.02 ± 0.38
10000 kPa | 669.19 ± 0.4 | 664.88 ± 0.4 | 660.66 ± 0.4 | 656.38 ± 0.4 | 652.04 ± 0.4 | 647.69 ± 0.41 | 643.44 ± 0.41 | 639.02 ± 0.41 | 634.54 ± 0.41 | 630.26 ± 0.41
20000 kPa | 678.5 ± 0.5 | 674.51 ± 0.5 | 670.51 ± 0.5 | 666.62 ± 0.51 | 662.53 ± 0.51 | 658.58 ± 0.51 | 654.67 ± 0.52 | 650.69 ± 0.52 | 646.65 ± 0.52 | 642.58 ± 0.53
30000 kPa | 686.83 ± 0.61 | 683.05 ± 0.61 | 679.25 ± 0.62 | 675.66 ± 0.62 | 671.8 ± 0.63 | 668.08 ± 0.63 | 664.53 ± 0.64 | 660.78 ± 0.64 | 656.94 ± 0.65 | 653.14 ± 0.65
40000 kPa | 694.31 ± 0.72 | 690.77 ± 0.72 | 687.12 ± 0.73 | 683.71 ± 0.74 | 680.03 ± 0.74 | 676.55 ± 0.75 | 673.1 ± 0.75 | 669.72 ± 0.76 | 666.02 ± 0.77 | 662.51 ± 0.77
50000 kPa | 701.27 ± 0.82 | 697.81 ± 0.83 | 694.34 ± 0.84 | 691.09 ± 0.84 | 687.56 ± 0.85 | 684.38 ± 0.86 | 680.94 ± 0.86 | 677.73 ± 0.87 | 674.2 ± 0.88 | 670.88 ± 0.88
60000 kPa | 707.71 ± 0.92 | 704.32 ± 0.93 | 701.07 ± 0.94 | 697.88 ± 0.95 | 694.57 ± 0.95 | 691.41 ± 0.96 | 688.22 ± 0.97 | 685.05 ± 0.98 | 681.7 ± 0.99 | 678.64 ± 0.99
65000 kPa | 710.76 ± 0.97 | 707.61 ± 0.98 | 704.25 ± 0.99 | 701.14 ± 1 | 697.92 ± 1 | 695.23 ± 1 | 691.61 ± 1 | 688.58 ± 1 | 685.35 ± 1 | 682.59 ± 1.1
